# Where two headings read alike, the source gives them in different places.
# Tests used:
# male Fischer rats = experiment: Non-GLP dose ranging toxicology study in rats, daily IV infusion for 4 days; conditions: for MTD: male Fischer rats, IV daily for 4 days
# Procedure: In a non-GLP dose ranging study in male Fischer rats, LB-100 was administered by daily intravenous (IV) infusion at 0.5, 0.75 and 1.5 mg/kg/day for 4 consecutive days.
# beagle dogs = experiment: Non-GLP dose ranging study in dogs, IV every 4 days x 4 doses; assay type: in vivo, dog
# From the text: Single cell necrosis was observed throughout the gastrointestinal tract.
# [1] = tested on: male and female beagle dogs
# Procedure: In the GLP repeat dose dog study, LB-100 was administered by intravenous injection (slow bolus push) at dose levels of 0.15, 0.30, and 0.75 mg/kg daily for 5 consecutive days. […] The dosage level was reduced to 0.50 mg/kg/day for the 4th and 5th doses (study Days 3 and 4).
# Multilead (I, II, III, aVR, aVL, aVF, and V2) ECGs were recorded for all animals prior to randomization (Day−8) and for all surviving animals on Day 4 (recorded approximately 2 to 4 hours following dose administration) and Day 27.
# Blood pressure (systolic, diastolic, and mean arterial pressure) data were recorded for all animals once during the pretest period (Day−8) and for all surviving animals on study Day 4 (recorded approximately 2 to 4 hours following dose administration) and Day 27.
# [2] = Solubility and stability of LB-100 solution; assay type: physicochemical; conditions: for stability: formulated in monosodium glutamate
# From the text: LB-100 is a water soluble enantiomeric zwitterion provided as a sterile solution for intravenous administration.
# Phosphate buffered saline (PBS) was used as the vehicle for LB-100 administration in preclinical efficacy studies and sodium bicarbonate 4.2% for injection was used as the vehicle for GLP toxicity studies.
# solid tumors = conditions: human, in vivo
# [3] = tested on: male and female Sprague Dawley rats; experiment: GLP repeat-dose study in rats, daily IV slow bolus for 5 days; conditions: for C0 / AUClast: 0.75 mg/kg/day
# del(5q) MDS = conditions: cited from earlier work; for median overall survival: long term follow up
# del(5q) clones = conditions: del(5q) patients; cited from earlier work
# [4] = MDS-003 multicenter Phase 2 trial
structure (smiles),measurement,setting,value
"CN1CCN(C(=O)C2C(C(=O)O)[C@H]3CC[C@@H]2O3)CC1 (mixture of isomers) [LB-100, 3-{4methylpiperazine-carbonyl}-7-oxalobicyclo[2.2.1]heptane-2-carboxylic acid]",nephrosis severity,male Fischer rats; 0.75 mg/kg/day,mild
same,no-observed-adverse-effect-level (NOAEL),"male Fischer rats; 0.5, 0.75 and 1.5 mg/kg/day IV for 4 days",not established
same,heart toxicity,male Fischer rats; 0.75 and 1.5 mg/kg/day groups,epicardial hyperplasia with inflammation primarily on the epicardium of the atria
same,unscheduled deaths,"male Fischer rats; any of the treatment groups (0.5, 0.75, 1.5 mg/kg/day)",no unscheduled deaths
same,MTD,male Fischer rats,0.75 mg/kg/day
same,MTD,male Fischer rats; surface area equivalent,about 4.5 mg/m^2
same,dose-limiting toxicities,"male Fischer rats; rat, in vivo, iv","Kidney, heart, femoral bone, liver and urinary bladder toxicity"
same,survival,"beagle dogs; 0.1, 0.25, 0.5, 1.0 mg/kg",no LB-100-related effects on survival
same,no observed-effect level (NOEL),"beagle dogs; beagle dogs, IV every 4 days x 4 doses",0.25 mg/kg
same,signs of toxicity,"beagle dogs; dog, in vivo, 1 mg/kg",almost no signs of toxicity
same,tolerability,[1]; 0.15 mg/kg/day,well tolerated
same,test article-related lethality,"[1]; 0.75 mg/kg/day group, prior to fourth dose",2 of 10
same,Highest Non-Severely Toxic Dose (HNSTD),"[1]; beagle dogs, IV daily for 5 consecutive days",0.15 mg/kg
same,ECGs,"[1]; dog, in vivo",within normal limits
same,blood pressure,"[1]; dog, in vivo",unaffected
same,hematology or coagulation parameters,"[1]; dog, in vivo",no residual effects
same,urinalysis parameters,"[1]; dog, in vivo",no test article-related changes
same,water solubility,[2],water soluble
same,stability,"[2]; pH 10.5, at refrigerated temperatures",at least 8 hours
same,stability,"[2]; pH 10.5, at −20° C.",stable for months
same,racemization of separated enantiomers,[2]; in solution,racemize rapidly in solution
same,cardiac or myelosuppressive toxicities,solid tumors,no cardiac or myelosuppressive toxicities observed
same,dose limiting toxicities,solid tumors,no dose limiting toxicities
same,plasma concentrations of LB-100,solid tumors,greater than 1 μM
same,tolerability,solid tumors,well tolerated
same,C0,"[3]; females, study Day 4",2347 ng/mL
same,AUClast,"[3]; males, study Day 4",596 ng·h/mL
same,C0,"[3]; males, study Day 4",1804 ng/mL
same,heart findings (epicardium and subepicardium of the atrium),"[3]; 0.5, 0.75, 1.25 mg/kg/day males and 1.25 mg/kg/day females",Minimal to mild subacute inflammation
same,kidney findings,[3]; 0.75 and 1.25 mg/kg/day group males and females,"adverse, test article-related nephrosis of the kidneys"
same,severely toxic dose in 10% of the animals (STD 10),"[3]; Sprague Dawley rats, IV slow bolus daily for 5 days",0.75 mg/kg/day
same,reversibility of effects on urinalysis parameters,[3]; all treatment groups,reversible
same,AUClast,"[3]; female, Sprague Dawley, rat, in vivo, iv",691 ng·h/mL
Nc1cccc2c1CN(C1CCC(=O)NC1=O)C2=O (stereo not shown) [lenalidomide],patients achieving a complete response (CR),"del(5q) MDS; MDS-003, cytogenetic response",45%
same,patients with at least a partial cytogenetic response,del(5q) MDS; MDS-003,73%
same,median TI duration,del(5q) MDS; [4],2.2 years
same,patients achieved transfusion independence (TI),del(5q) MDS; [4],67%
same,patients who develop resistance,del(5q) MDS; after 2-3 years of treatment,approximately 50%
same,median overall survival,del(5q) MDS; cytogenetic non-responders,3.1 years
same,median overall survival,del(5q) MDS; cytogenetic responders,4.9 years
same,median overall survival,del(5q) MDS; non-responders (TI),2 years
same,median overall survival,del(5q) MDS; patients who reached TI,4.3 years
same,median duration of TI,"del(5q) MDS; patients with PP2Acα suppression from baseline, not reached",≥ 1507 days
same,median duration of responses,del(5q) MDS; patients with del5q MDS,2.5 years
same,median duration of TI,"del(5q) MDS; patients without PP2Acα suppression (P=0.006, log rank)",679 days
same,apoptosis and cell cycle arrest,del(5q) clones,induces apoptosis and cell cycle arrest

# — patent US20220323433A2, “CLINICAL REGIMEN FOR TREATING MYELODYSPLASTIC SYNDROME WITH PHOSPHATASE INHIBITOR” (H. Lee Moffitt Cancer Center and Research Institute, Inc., priority 2016, published 2022)
